In publication PMC11696576, “Next generation thiazolyl ketone inhibitors of cytosolic phospholipase A2 α for targeted cancer therapy” (Nature Communications, 2025):
Like-named read-outs stand apart in the source and are kept apart here.

Molecular target: T1, human calcium-independent GVIA iPLA2 (Homo sapiens, UniProt O60733)
T1 sequence (O60733 1-806): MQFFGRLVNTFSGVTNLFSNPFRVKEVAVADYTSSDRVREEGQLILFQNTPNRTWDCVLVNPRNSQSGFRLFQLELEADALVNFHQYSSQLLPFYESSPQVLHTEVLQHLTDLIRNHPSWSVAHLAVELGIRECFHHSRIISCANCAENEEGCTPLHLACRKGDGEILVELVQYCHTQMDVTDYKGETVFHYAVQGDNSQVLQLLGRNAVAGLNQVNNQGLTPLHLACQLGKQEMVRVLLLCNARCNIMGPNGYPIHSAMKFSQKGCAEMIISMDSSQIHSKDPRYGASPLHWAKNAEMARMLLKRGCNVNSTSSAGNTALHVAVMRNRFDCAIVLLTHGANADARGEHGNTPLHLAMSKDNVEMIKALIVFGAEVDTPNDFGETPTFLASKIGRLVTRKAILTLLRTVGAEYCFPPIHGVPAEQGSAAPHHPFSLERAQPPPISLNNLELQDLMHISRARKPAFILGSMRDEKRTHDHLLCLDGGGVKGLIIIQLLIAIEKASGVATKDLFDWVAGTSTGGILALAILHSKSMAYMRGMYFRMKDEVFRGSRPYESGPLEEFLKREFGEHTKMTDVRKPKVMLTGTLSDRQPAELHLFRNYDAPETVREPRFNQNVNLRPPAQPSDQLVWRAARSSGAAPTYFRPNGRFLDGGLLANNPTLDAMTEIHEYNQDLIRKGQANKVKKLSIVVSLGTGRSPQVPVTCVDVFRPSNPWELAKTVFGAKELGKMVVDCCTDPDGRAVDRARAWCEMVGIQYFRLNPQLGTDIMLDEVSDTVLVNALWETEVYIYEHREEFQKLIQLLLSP
Assay: radioactivity-based mixed micelle assay, GVIA iPLA2
Format: biochemical
Method: All synthesized thiazolyl ketones were tested for their in vitro inhibitory activity on recombinant human cPLA2α and selectivity over human calcium-independent GVIA iPLA2 and secreted GV sPLA2 using our previously described group-specific radioactivity-based mixed micelle assays. The inhibition results are presented either as per cent inhibition or as XI(50) values in Table 1. […] The XI(50) is defined as the mole fraction of the inhibitor in the total substrate interface required to inhibit the enzyme activity by 50%. For comparison purposes, previously published data for the inhibitor GK470[19] are included. […] Inhibitors were initially screened at 0.091 mol fraction (5 μL of 5 mM inhibitor in DMSO) in substrate (495 μL) in technical triplicates. […] The XI(50) value and stdev values reported are for the entire curve. This analysis was performed in GraphPad Prism v6.

[1] = 0.091 mole fraction, read-out: GVIA iPLA2 % Inhib
[2] = average of triplicates, read-out: iPLA2 % inhibition at 0.091 mole fraction, average
[3] = individual technical replicate, read-out: iPLA2 % inhibition at 0.091 mole fraction

Row | inhibition at 0.091 mole fraction [1] | inhibition at 0.091 mole fraction [2] | inhibition at 0.091 mole fraction [3] | Compound
1 | 40% | 39.8% | 41.2% | CCCCCCCCc1ccc(OCC(=O)c2nc(C(=O)OCC)cs2)cc1 [GK401]
2 | 61% | 60.8% | 59.9% | CCCCCCCCc1ccc(OC(C)C(=O)c2nc(C(=O)OC)cs2)cc1 (centres unmarked) [GK402]
3 | 34% | 34.3% | 33.6% | COC(=O)c1csc(C(=O)COc2ccc(Oc3ccccc3)cc2)n1 [GK403]
4 | 0% | 0% | 0% | CCCCCCOc1ccc(SCC(=O)c2nc(C(=O)OC)cs2)cc1 [GK419]
5 | 7.5% | 7.5% | – | CCCCCCSc1ccc(OCC(=O)c2nc(C(=O)OC)cs2)cc1 [GK427]
6 | 54% | 53.6% | 54.3% | COC(=O)c1csc(C(=O)C(C)Oc2ccc(Oc3ccccc3)cc2)n1 (centres unmarked) [GK428]
7 | 67% | 66.9% | 68.3% | CCCCCCCOc1ccc(OC(C)C(=O)c2nc(C(=O)OC)cs2)cc1 (centres unmarked) [GK439]
8 | 0% | 0% | 0% | COC(=O)c1csc(C(=O)COc2ccc(Oc3ccc(F)cc3)cc2)n1 [GK440]
9 | 67% | 67.1% | 73.4% | CCCCCCSc1ccc(OC(C)C(=O)c2nc(C(=O)OC)cs2)cc1 (centres unmarked) [GK449]

Row | Compound | inhibition at 0.091 mole fraction [1] | inhibition at 0.091 mole fraction [2] | inhibition at 0.091 mole fraction [3]
10 | CCCCCCCOc1ccc(OCC(=O)c2nc(C(=O)OC)cs2)cc1 [GK420] | 0% | 0% | 0%
